What was measured:
Assay in all cases: selective drug sensitivity score (sDSS, relative to normal bone marrow) (sDSS (score)); higher = more potent and effective on the cell line relative to normal bone marrow cells
Settings in all cases: 72 h
[1] = test system: KASUMI-2
[2] = test system: HPB-ALL
[3] = test system: 697
[4] = test system: COG-LL-317
[5] = test system: SEM cells
[6] = test system: COG-LL-402h
[7] = test system: CCRF-CEM
[8] = test system: COG-LL-394h
[9] = test system: HAL-01
[10] = test system: MOLT-14
[11] = test system: KOPN-8
[12] = test system: P30-OHKUBO
[13] = test system: DND-41
[14] = test system: TANOUE
[15] = test system: P12-ICHIKAWA
[16] = test system: MOLT-16
[17] = test system: LC4-1
[18] = test system: COG-LL-332h
[19] = test system: SUP-B15
[20] = test system: MOLT-4
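Note: ALL cell lines in 384-well plates, five doses spanning 10,000-fold, each plate scaled between vehicle and 100 µmol/L benzalkonium chloride controls, sDSS an adapted area-under-curve metric.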

Row | SMILES | selective drug sensitivity score [1] | selective drug sensitivity score [2] | selective drug sensitivity score [3] | selective drug sensitivity score [4] | selective drug sensitivity score [5] | selective drug sensitivity score [6] | selective drug sensitivity score [7] | selective drug sensitivity score [8] | selective drug sensitivity score [9] | selective drug sensitivity score [10] | selective drug sensitivity score [11] | selective drug sensitivity score [12] | selective drug sensitivity score [13] | selective drug sensitivity score [14] | selective drug sensitivity score [15] | selective drug sensitivity score [16] | selective drug sensitivity score [17] | selective drug sensitivity score [18] | selective drug sensitivity score [19] | selective drug sensitivity score [20]
1 | CCn1cc(-c2ccnc3[nH]c(-c4cccc(CN(C)C)c4)cc23)c(-c2ccc(NC(=O)N(C)C)cc2)n1 (top concentration 1000 nM) | 17.7 | -0.44 | 20.5 | 18.7 | 17.9 | 17.8 | 18 | 0.36 | 1.46 | 15.9 | 11.2 | 26.6 | -0.84 | -1.84 | 15.4 | 14.9 | 23.4 | 19.3 | 23.9 | 13.1
2 | CC(C)(C)C[C@@H]1N[C@@H](C(=O)N[C@H]2CC[C@H](O)CC2)[C@H](c2cccc(Cl)c2F)[C@]12C(=O)Nc1cc(Cl)ccc12 (top concentration 10000 nM) | 11.7 | -3.44 | 11.2 | 19.9 | -1.94 | 13.4 | -3.94 | 6.46 | 12.2 | 9.56 | 12.9 | 12.4 | -3.84 | -7.84 | -5.24 | 12.5 | 12.4 | 8.66 | 20.4 | 12.9
3 | Cc1c(Cn2c(C)nc3c(C(=O)O)cc(N4CCOCC4)cc32)cccc1C(F)(F)F (top concentration 10000 nM) | -0.02 | -0.02 | 1.28 | 2.28 | 0.58 | 3.68 | 0.38 | -0.02 | 9.28 | 0.38 | 0.38 | 2.38 | 1.78 | -0.02 | -0.02 | -0.02 | -0.02 | 0.98 | 0.38 | -0.02
4 | Nc1ncnc2c1c(COc1cccc(Cl)c1)nn2C1CCOCC1 (top concentration 10000 nM) | 2.46 | 1.26 | 0.26 | -0.64 | -0.64 | 1.56 | -0.44 | -0.64 | 4.06 | -0.64 | 5.66 | 0.56 | -0.64 | 1.16 | -0.54 | -0.64 | 0.26 | -0.14 | 0.16 | 0.16
5 | Cn1cc(C[C@@H](N)C(=O)O)c2ccccc21 [1-methyl-D-tryptophan] (top concentration 5000 nM) | 0.38 | -0.62 | -0.62 | -0.62 | -0.32 | -0.62 | -0.62 | -0.62 | 0.58 | -0.62 | 1.18 | 0.58 | -0.62 | -0.62 | -0.62 | -0.62 | -0.62 | -0.62 | -0.62 | -0.62
6 | COc1cc2c(cc1OCCCN1CCCC1)N=C(N)C21CCC1 [A-366] (top concentration 25000 nM) | -1.84 | -1.84 | -1.34 | 3.06 | 0.46 | -1.84 | 2.16 | 2.06 | -1.84 | 3.16 | -0.64 | 2.56 | 4.56 | -1.84 | -0.84 | 3.46 | -1.24 | 4.86 | -1.14 | 1.36
7 | COCCOc1cnc2ccn([C@H](C)c3nnc4c(F)cc(-c5cnn(C)c5)cn34)c(=O)c2c1 [AMG-337] (top concentration 10000 nM) | 2.14 | 1.54 | -0.06 | -0.06 | -0.06 | -0.06 | -0.06 | -0.06 | 5.24 | -0.06 | 1.54 | 0.84 | -0.06 | -0.06 | -0.06 | -0.06 | -0.06 | -0.06 | -0.06 | -0.06
8 | COc1cc(N2CCC(N3CCN(C)CC3)CC2)ccc1Nc1ncnc(Nc2ccccc2S(=O)(=O)C(C)C)n1 [ASP3026] (top concentration 10000 nM) | -4.04 | 1.26 | -0.84 | -1.44 | 1.66 | 1.76 | -0.14 | 2.36 | 1.76 | 1.36 | -2.64 | -1.04 | 0.56 | -2.64 | -1.44 | -1.54 | -0.44 | -0.04 | 1.16 | -0.14
9 | CN[C@@H](C)C(=O)N[C@H]1CN(C(=O)CC(C)C)CC[C@H]2CC[C@@H](C(=O)NC(c3ccccc3)c3ccccc3)N2C1=O [AT-406] (top concentration 10000 nM) | 0.34 | -1.26 | -1.26 | 0.64 | -1.26 | -0.86 | 1.34 | 5.84 | 3.04 | -1.26 | -1.26 | -1.06 | -1.26 | -1.26 | -1.26 | -1.26 | -1.26 | 2.54 | -1.26 | -1.26
10 | COc1cc2ncnc(Nc3cccc(Cl)c3F)c2cc1OC(=O)N1CCN(C)C[C@H]1C [AZD3759] (top concentration 1000 nM) | -0.04 | -0.04 | -0.04 | -0.04 | -0.04 | -0.04 | -0.04 | -0.04 | -0.04 | -0.04 | -0.04 | -0.04 | -0.04 | -0.04 | -0.04 | -0.04 | -0.04 | -0.04 | -0.04 | -0.04
11 | C[C@]12CC[C@H](O)CC1=CC[C@@H]1[C@@H]2CC[C@]2(C)C(c3cccnc3)=CC[C@@H]12 [Abiraterone] (top concentration 5000 nM) | -0.12 | -0.12 | -0.12 | -0.12 | -0.12 | -0.12 | -0.12 | -0.12 | -0.12 | -0.12 | 1.78 | 1.48 | -0.12 | -0.12 | -0.12 | 1.28 | 1.18 | -0.12 | -0.02 | -0.12
12 | CC#CC(=O)N1CCC[C@H]1c1nc(-c2ccc(C(=O)Nc3ccccn3)cc2)c2c(N)nccn12 [Acalabrutinib] (top concentration 1000 nM) | -0.1 | -0.1 | 0.8 | -0.1 | 3.2 | -0.1 | 0.8 | -0.1 | 7.2 | -0.1 | -0.1 | 1.3 | -0.1 | -0.1 | -0.1 | -0.1 | -0.1 | -0.1 | 3.7 | -0.1
13 | CCc1cc2c(cc1N1CCC(N3CCOCC3)CC1)C(C)(C)c1[nH]c3cc(C#N)ccc3c1C2=O [Alectinib] (top concentration 1000 nM) | 1.08 | -0.22 | 2.48 | 5.48 | 0.58 | 1.48 | 0.18 | 2.58 | 1.28 | 1.08 | 1.38 | 1.68 | 0.08 | -0.22 | -0.22 | -0.22 | 3.18 | 0.18 | -0.22 | -0.22
14 | Oc1ncnc2[nH]ncc12 [Allopurinol] (top concentration 10000 nM) | -0.64 | 6.06 | -0.64 | -0.64 | -0.54 | -0.64 | -0.24 | -0.64 | -0.64 | -0.64 | -0.64 | 0.96 | -0.64 | -0.64 | -0.64 | -0.64 | 0.06 | -0.64 | 0.36 | -0.64
15 | COc1cc(NS(C)(=O)=O)ccc1Nc1c2ccccc2nc2ccccc12 [Amsacrine] (top concentration 10000 nM) | 21.7 | 2.56 | 20.6 | 25.8 | 12.8 | 16.8 | 15.1 | 8.26 | 14.1 | 18.8 | 18.3 | 13 | 4.16 | -11.2 | 13.5 | 27.1 | 15.5 | 20.1 | 23.6 | 21.3
16 | O=C1CN2Cc3c(ccc(Cl)c3Cl)N=C2N1 [Anagrelide] (top concentration 10000 nM) | 0 | 0 | 0 | 0 | 0 | 0 | 0 | 0 | 0 | 0 | 3.4 | 0 | 0 | 0 | 0 | 0 | 0 | 0 | 0 | 0
17 | N#CC(c1ccnc(OCc2ccc(CN3CCOCC3)cc2)n1)c1nc2ccccc2s1 (stereo not given) [Bentamapimod] (top concentration 10000 nM) | -0.46 | 3.34 | 5.14 | 3.34 | 3.24 | 1.54 | 3.94 | 3.44 | 2.74 | 2.74 | 5.64 | 5.34 | 3.64 | 0.84 | 2.94 | 4.04 | 2.34 | 2.94 | 2.34 | 1.74
18 | CCNC(=O)CCC/C=C\C[C@@H]1[C@@H](/C=C/[C@@H](O)CCc2ccccc2)[C@H](O)C[C@@H]1O [Bimatoprost] (top concentration 5500 nM) | 2.5 | 0.5 | 0 | 0 | 0 | 0 | 0 | 0 | 0 | 0 | 0 | 0 | 5.6 | 0 | 0 | 0 | 0 | 0 | 0 | 0

Source: the supplement of paper PMC8967900
